Columns and labels:
[1] = tested on: C6 glioma xenografts; test: Photodynamic treatment (PDT) of C6 glioma xenografts; assay type: in vivo, CD1 nude mice
Experimental: (vii) Tumor implantation. Cultured C6 glioma cell monolayers were scraped in saline, centrifuged at 250 g for 5 min, resuspended in saline and subcutaneously injected (2×10^6 cells/mouse) into the back of CD1 nude mice. Tumors reached a treatment diameter of 6-8 mm within 2 weeks. The mice were sacrificed (according to the guidelines of the Weizmann Institute of Science) when tumors reached the diameter of ≧15 mm.
(xi) PDT Protocol. CD1 nude mice bearing C6 glioma (n=17) were anesthetized and compound 5 (0.3 mg/kg) was injected via the tail vein. The tumor area was immediately illuminated (drug-to-light time interval (DLTI)=0) transcutaneously for 15 min by 755 nm diode laser (CeramOptec, Germany) with light dose of 80 mW/cm^2 (light field diameter—14 mm). Following illumination the mice (n=12) were placed back in the cage. Tumor response (using local necrosis at day 8 post-PDT as end point) was recorded photographically, and tumor volume was assessed (Gleave et al., 1992.) Response was considered as partial when only a part of the illuminated tumor became necrotic. Mice were considered cured if they were tumor free 90 days after treatment. Continued tumor growth following PDT was scored as no response. Mice were sacrificed when tumor diameter reached 15 mm. The following controls were used: (i) dark control (n=3)-tumor-bearing mice i.v. injected with sensitizer but not illuminated; (ii) light control (n=2)-tumor-bearing mice not injected with sensitizer but illuminated; (iii) untreated control (n=2)-tumor-bearing mice not injected with sensitizer and not illuminated.
Based on the pharmacokinetic data described in Example 20 above, the treatment protocol for compound 5 was set to 15-min illumination immediately after injection of the sensitizer, using a dedicated medical laser matched to the peak absorption of 5 (CeramOptec, Germany, 755 nm). In order to test the drug efficiency, CD1 male nude mice (n=12) were treated with a dose of 0.3 mg/kg compound 5 and light intensity of 80 mW/cm^2. […] FIGS. 6B-6C are photographs of the tumor site of a mice injected with compound 5 but not illuminated and of a mice injected with saline and illuminated, respectively.
FIG. 7 depicts a Kaplan-Meier survival curve showing 80% survival for mice treated with compound 5 and illuminated (treatment, squares).

[2] = Octanol/water partition ratio; assay type: physicochemical
Source text: Optical absorption in water, λ (relative absorption): 753 (1.00), 519 (0.30), 354 (1.25) nm. Octanol/water partition ratio is 40/60. ESI-MS (+): 413.62 ([M-2×citrate]/2). Octanol/water partition ratio is 50/50. ESI-MS (+): 455.89 ([M-2×citrate]/2). Octanol/water partition ratio is 75/25.

Substance: 3^1-Oxo-15-methoxycarbonylmethyl-Rhodo-bacteriochlorin 13^1,17^3-di(2-N^3-trimethylammoniumethyl)amide dicitrate salt [Compound 5]
- survival (Kaplan-Meier survival curve) ([1]; 0.3 mg/kg i.v., illuminated 15 min, 755 nm, 80 mW/cm^2): 80%
- lower concentration causing tumor eradication than Pd-Bpheid or the negatively-charged 13^1-(2-sulfoethyl)amide dipotassium salt ([1]; C6 glioma xenografts in mice): 10 fold
- outcome at tumor site ([1]; PDT-treated mouse, by day 32): the wound healed and the animal was cured
- tumor necrosis ([1]; PDT-treated mouse, day 14, 0.3 mg/kg, 80 mW/cm^2): tumor necrosis was observed
- local reaction after treatment ([1]; all animals of full treatment group, day 1 after treatment): developed inflammation and edema
- tumor necrosis, dark control ([1]; injected with compound but not illuminated): No necrosis of the tumor
- Octanol/water partition ratio ([2]; dicitrate salt): 40/60
- Octanol/water partition ratio ([2]; listed as 2, dicitrate salt): 75/25

— patent US8207154B2, “Catatonic bacteriochlorophyll derivatives” (Yeda Research and Development Co., Ltd., priority 2005, dated 2012)
